Here are results for two compounds from US20040132731A1, “Novel combination” (priority 2002, published 2004).

The subject of the experiment is spontaneously hypertensive rat (SHR). Put plainly: Animal study: change in mean arterial pressure in anaesthetised spontaneously hypertensive rats. The following applies: anaesthetised male SHR; for Change in mean arterial pressure from vehicle: n=6/group, infusion at 0.5 mL/h, candesartan 0.02 μg/kg/min, PDE5 inhibitor 15.61 μg/kg/min, combination 15.61 μg/kg/min+0.02 μg/kg/min; for fall in MAP: text restatement of the table, combination vs sum of the two individual effects p=0.058. The experiment is classed as in vivo. As for the experimental part: The spontaneously hypertensive rat (SHR) is a widely used model of human hypertension. Anaesthetised male SHRs (250-450 g) were surgically prepared for the measurement of systolic, diastolic and mean arterial pressure. Cannulae were inserted into the jugular veins and carotid artery. The trachea was also cannulated to facilitate respiration. Following a 60 min post-surgical stabilisation period, arterial blood pressure and heart rate were recorded via a pressure transducer and PoNeMah data acquisition system.
Solutions of candesartan (0.02, μg/kg/min), PDE5 inhibitor (15.61 μg/kg/min) and a combination of PDE5 inhibitor and candesartan (15.61 μg/kg/min+0.02, μg/kg/min) were infused as appropriate at a rate of 0.5 mL/h. Control animals received compound vehicle (5% DMSO, 10% PEG200, 85% water for injection (v/v)).
Baseline haemodynamic parameters were recorded. Animals (n=6/group) were randomised to receive a primed infusion of either vehicle or PDE5 Inhibitor for a period of 60 min. At this point, these groups were further randomised to receive either (i) vehicle or PDE5 inhibitor alone, (ii) candesartan alone or (iii) a combination of candesartan and PDE5 inhibitor. Changes in mean arterial pressure were monitored during the study period.

Regarding `CCc1c2nc(-c3cc(S(=O)(=O)N4CCN(CC)CC4)cnc3OCCOC)[nH]c(=O)c2nn1Cc1ccccn1` [PDE5 inhibitor, 3-ethyl-5-[5-(4-ethylpiperazin-1-ylsulphonyl)-2-(2-methoxyethoxy)pyridin-3-yl]-2 (pyridin-2-yl)methyl-2,6-dihydro-7H-pyrazolo[4,3-d]pyrimidin-7-one], the “Change in mean arterial pressure from vehicle” value is reported as −7.4 mmHg and the “fall in MAP” value came out at 7.4 mmHg.

Regarding `CCOc1nc2cccc(C(=O)O)c2n1Cc1ccc(-c2ccccc2-c2nnn[nH]2)cc1` [candesartan], the “Change in mean arterial pressure from vehicle” value is on record as −3.2 mmHg and the “fall in MAP” value is 3.2 mmHg.
